In general, IC50 refers to the point on the concentration scale where inhibition reaches its midpoint.

Here are results for 9 compounds from US20240376099A1, “COMPOUNDS AND COMPOSITIONS AS INHIBITORS OF ENDOSOMAL TOLL-LIKE RECEPTORS” (Novartis AG, priority 2016, published 2024).

The target of one test is T1, TLR7 (Homo sapiens, UniProt Q9NYK1).
T1 construct: Fresh blood was collected from normal human donors; endogenous in cells; host or cells: human PBMCs from fresh donor blood
T1 sequence (Q9NYK1 27-1049): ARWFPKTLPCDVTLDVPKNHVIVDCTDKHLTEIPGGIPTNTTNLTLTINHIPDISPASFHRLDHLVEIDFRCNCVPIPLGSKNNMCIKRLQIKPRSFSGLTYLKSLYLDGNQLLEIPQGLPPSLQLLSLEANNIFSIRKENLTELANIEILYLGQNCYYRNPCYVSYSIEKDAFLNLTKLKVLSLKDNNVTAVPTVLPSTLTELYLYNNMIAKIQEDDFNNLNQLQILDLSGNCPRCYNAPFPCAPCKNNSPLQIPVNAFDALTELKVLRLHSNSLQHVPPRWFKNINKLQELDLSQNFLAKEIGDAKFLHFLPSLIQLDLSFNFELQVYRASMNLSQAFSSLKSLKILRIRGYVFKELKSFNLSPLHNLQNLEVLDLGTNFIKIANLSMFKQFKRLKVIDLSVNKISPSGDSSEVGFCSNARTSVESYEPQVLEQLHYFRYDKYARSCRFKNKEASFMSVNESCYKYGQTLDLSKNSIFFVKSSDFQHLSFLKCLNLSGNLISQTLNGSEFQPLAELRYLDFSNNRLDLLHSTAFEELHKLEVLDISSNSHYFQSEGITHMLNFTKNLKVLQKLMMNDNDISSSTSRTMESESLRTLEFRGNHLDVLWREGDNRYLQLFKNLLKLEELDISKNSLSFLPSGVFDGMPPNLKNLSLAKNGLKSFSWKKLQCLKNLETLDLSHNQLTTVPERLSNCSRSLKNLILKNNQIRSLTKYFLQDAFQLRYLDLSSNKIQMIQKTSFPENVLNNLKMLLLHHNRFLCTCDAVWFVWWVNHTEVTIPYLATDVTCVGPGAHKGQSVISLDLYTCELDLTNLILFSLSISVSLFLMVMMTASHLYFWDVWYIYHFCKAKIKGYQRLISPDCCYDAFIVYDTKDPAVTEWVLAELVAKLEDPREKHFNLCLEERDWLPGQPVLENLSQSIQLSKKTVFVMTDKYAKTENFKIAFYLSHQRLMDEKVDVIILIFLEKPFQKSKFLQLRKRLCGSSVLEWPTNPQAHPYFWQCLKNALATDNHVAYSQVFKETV
The test can be described thus: huPBMC TLR7 Antagonist IFNα Assay. As to conditions: human PBMCs stimulated with ssRNA40 10 μg/mL (DOTAP), 14-16 hrs; IFNα2b AlphaLISA read-out. The class given is cell-based. On the procedure: (§1) Compounds were generally serially diluted (1/3) in DMSO and plated on sterile 384 well tissue culture plates and stored until ready for use. Each ten-point dilution was typically plated in triplicate in parallel rows.
(§2) Fresh blood was collected from normal human donors underwritten informed consent in heparinized syringes on the morning of the assay. The blood was diluted in RPMI-1640 medium and the white blood cells were separated from red blood cells by centrifugation (800 g 15′ 0 acceleration, 0 brake) on a Ficoll cushion. Peripheral blood mononuclear cells (PBMCs) were separated from platelets by a series of low-speed centrifugations (1000RPM 10′) in PBS+5% HI—FBS and 1 mM EDTA. Purified PBMCs were re-suspended in assay medium (RPMI-1640 w Glutamax (Invitrogen) supplemented with 5% HI—FBS, 10 mM HEPES, 50 uM β-mercaptoethanol, and 100 mG/L penicillin/streptomycin cocktail). Viable PBMCs were counted on a hemacytometer and kept on ice until ready for plating.
(§3) A 4× concentration (4 ug/ml or 40 ug/ml for TLR8 or TLR7 assays, respectively) of the TLR7/8 agonist ssRNA40 (IDT) was complexed with 10% DOTAP (Roche) in assay medium for 30 min prior to addition to the PBMC suspension (5 million cells/ml). After addition, the final concentration of ssRNA40 in the TLR7/8 stimulated PBMC suspension was 1 μg/ml for TLR8 assay, and 10 μg/mL for the TLR7 assay. The final DOTAP concentration was 2.5%. Diluted PBMCs (5 million cells/ml) were treated with 4×TLR9 agonist ODN2216 (Invivogen). Final concentration of ODN2216 in TLR9 stimulated PBMC suspension was 0.3 μM.
(§4) Agonist stimulated PBMCs were plated on the compound treated 384 well plates at 150,000 cells/well. Un-stimulated PBMCs were plated as controls on each plate. Plating volume was 40 μL per well. DMSO concentration in each well was 0.25%.
(§5) A separate plate, without compounds, with titrations of ssRNA40 and ODN2216 was included in every assay to measure agonist response of each donor's PBMC prep. Assay plates were placed in a tissue culture incubator (37° C., 5% CO2) for 14-16 hrs. After this incubation, the plates were centrifuged and stored at −20° C. until they were assayed.
(§6) IL-6 TR-FRET Assay for TLR8 activity: • 1) Cisbio Human IL-6 kit, 20,000 tests (62TNFPEC), and GNF High-Base TC 384 well plates (cat #789163G) were used; • 2) the Anti-TIL-6 Cryptate conjugate and the Anti-IL-6 XL665 conjugate were diluted 1:20 in Reconstitution Buffer; • 3) a 1:1 mixture of 3 μl/well Anti-IL-6 Cryptate conjugate and 3 μl/well Anti-IL-6 XL665 conjugate was prepared; • 4) 6 μl/well HTRF dilution mastermix was added to 6 μl of transferred supernatant samples in proxiplates; • 5) The plates were incubated for 3 hrs at rt in the dark; and • 6) the levels of IL-6 production was measured using an Envision plate reader (665 nm (emmission)/590 nm (excitation)) with HTRF settings and ratiometric read-out: (XL665 emission/Eu Cryptate emission)×10,000. IFNα2b AlphaLISA Assay for TLR7 or TLR9 activity After thawing the assay plates, 6 μL of supernatant samples were transferred to a low-volume AlphaPlate 384SW (Perkin-Elmer). The concentration of IFNα in supernatants was measured using the IFNα2b AlphaLISA Assay (Perkin-Elmer: AL297F). 3 μL of IFNα acceptor beads/biotinylated antibody solution was added first, using laboratory automation. After an hour incubation, […] of streptavidin […] bead solution was added. The plates containing this mixture were incubated in the dark for an hour and read on an appropriate plate reader at reading parameters set by the manufacturer. (Envision, EnSpire: Perkin-Elmer).
(In general: Alpha assays give light when donor and acceptor beads are brought close together.)

Another test addresses T2, TLR8 (Homo sapiens, UniProt Q9NR97).
T2 sequence (Q9NR97 27-1041): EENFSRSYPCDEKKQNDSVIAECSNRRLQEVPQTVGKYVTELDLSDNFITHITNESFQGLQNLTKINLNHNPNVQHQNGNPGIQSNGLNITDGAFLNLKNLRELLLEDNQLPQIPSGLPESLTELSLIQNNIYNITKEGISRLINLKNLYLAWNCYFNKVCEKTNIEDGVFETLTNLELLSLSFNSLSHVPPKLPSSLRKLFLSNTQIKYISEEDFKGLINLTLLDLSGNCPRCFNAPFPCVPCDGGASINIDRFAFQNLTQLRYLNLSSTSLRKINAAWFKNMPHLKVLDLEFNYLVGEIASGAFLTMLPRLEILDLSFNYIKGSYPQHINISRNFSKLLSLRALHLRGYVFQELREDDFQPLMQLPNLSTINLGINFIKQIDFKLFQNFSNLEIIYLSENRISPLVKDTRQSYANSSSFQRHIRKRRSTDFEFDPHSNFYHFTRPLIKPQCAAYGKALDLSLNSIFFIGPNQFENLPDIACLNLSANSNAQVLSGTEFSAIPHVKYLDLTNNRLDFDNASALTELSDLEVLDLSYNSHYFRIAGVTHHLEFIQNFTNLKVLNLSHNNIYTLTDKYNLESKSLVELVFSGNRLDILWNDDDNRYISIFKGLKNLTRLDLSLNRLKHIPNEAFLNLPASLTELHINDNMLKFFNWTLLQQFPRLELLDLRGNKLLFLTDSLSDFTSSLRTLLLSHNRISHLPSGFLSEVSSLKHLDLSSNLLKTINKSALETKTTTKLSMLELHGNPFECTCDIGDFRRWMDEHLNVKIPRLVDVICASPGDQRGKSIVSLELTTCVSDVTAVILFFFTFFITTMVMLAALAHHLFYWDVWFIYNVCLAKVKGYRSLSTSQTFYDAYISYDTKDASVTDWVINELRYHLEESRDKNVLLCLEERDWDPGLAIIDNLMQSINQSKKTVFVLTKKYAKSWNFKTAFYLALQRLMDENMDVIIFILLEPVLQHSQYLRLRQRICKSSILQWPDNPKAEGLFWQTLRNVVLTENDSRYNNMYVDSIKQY
As to the kind of experiment: huPBMC TLR8 Antagonist IL-6 TR-FRET Assay. The class given is cell-based. The note with it: human PBMCs stimulated with ssRNA40 1 μg/ml (DOTAP), 14-16 hrs; IL-6 TR-FRET read-out. On the set-up: Fresh blood was collected from normal human donors; endogenous in cells; host or cells: human PBMCs from fresh donor blood. The procedure:
as §1, §2, §3, §4, §5, §6
Background: In TR-FRET formats the signal depends on donor and acceptor labels being close together.

With `Cc1cc(N2CCc3c(c(C)nn3CC34CCC(N)(CC3)CC4)C2)c2ccn(C)c2n1` [Compound No. 5, 4-((5-(1,6-dimethyl-1H-pyrrolo[2,3-b]pyridin-4-yl)-3-methyl-4,5,6,7-tetrahydro-1H-pyrazolo[4,3-c]pyridin-1-yl)methyl)bicyclo[2.2.2]octan-1-amine], the IC50 worked out at 397 nM on TLR7 and 433 nM at TLR8.

As for `Cc1cc(N2CCc3c(c(C)nn3CC34CCC(NS(C)(=O)=O)(CC3)CC4)C2)c2cnn(C)c2n1` [Compound No. 48, N-(4-((5-(1,6-dimethyl-1H-pyrazolo[3,4-b]pyridin-4-yl)-3-methyl-4,5,6,7-tetrahydro-1H-pyrazolo[4,3-c]pyridin-1-yl)methyl)bicyclo[2.2.2]octan-1-yl)methanesulfonamide], at TLR7, the IC50 was 13 nM. For the compound `Cc1cc(N2CCc3c(c(C)nn3CC34CCC(NCC(F)F)(CC3)CC4)C2)c2cnn(C)c2n1` [Compound No. 61, N-(2,2-difluoroethyl)-4-((5-(1,6-dimethyl-1H-pyrazolo[3,4-b]pyridin-4-yl)-3-methyl-4,5,6,7-tetrahydro-1H-pyrazolo[4,3-c]pyridin-1-yl)methyl)bicyclo[2.2.2]octan-1-amine], the figures for the concentration for half-maximal inhibition (IC50) at TLR7 and on TLR8 were 12 nM and 129 nM, respectively.

`Cc1nc(N2CCc3c(c(C)nn3CC34CCC(NC(=O)C5CNC5)(CC3)CC4)C2)c2c(n1)c(C)nn2C` [compound 32, N-(4-((3-methyl-5-(1,3,5-trimethyl-1H-pyrazolo[4,3-d]pyrimidin-7-yl)-4,5,6,7-tetrahydro-1H-pyrazolo[4,3-c]pyridin-1-yl)methyl)bicyclo[2.2.2]octan-1-yl)azetidine-3-carboxamide]: the 50% inhibitory concentration (IC50) at TLR7 came out at 124 nM; on TLR8, 125 nM. In the case of `Cc1cc(N2Cc3cnn(CC45CCC(N)(CC4)CC5)c3C(C)(C)C2)c2cnn(C)c2n1` [compound 60, 4-((5-(1,6-dimethyl-1H-pyrazolo[3,4-b]pyridin-4-yl)-7,7-dimethyl-4,5,6,7-tetrahydro-1H-pyrazolo[4,3-c]pyridin-1-yl)methyl)bicyclo[2.2.2]octan-1-amine], the values for the 50% inhibitory concentration (IC50) on TLR7 and on TLR8 were 1030 nM and 277 nM, respectively. On the same counts, the results for `Cc1nn(CC23CCC(N)(CC2)CC3)c2c1CN(c1ccnc(-c3ccccc3)c1)CC2` [compound 63, 4-((3-methyl-5-(2-phenylpyridin-4-yl)-4,5,6,7-tetrahydro-1H-pyrazolo[4,3-c]pyridin-1-yl)methyl)bicyclo[2.2.2]octan-1-amine] are 34 nM and 568 nM.

Consider `Cc1cc(N2CCc3c(c(C)nn3CC34CCC(N5CCCCC5)(CC3)CC4)C2)c2cnn(C)c2n1` [compound 67, 5-(1,6-dimethyl-1H-pyrazolo[3,4-b]pyridin-4-yl)-3-methyl-1-((4-(piperidin-1-yl)bicyclo[2.2.2]octan-1-yl)methyl)-4,5,6,7-tetrahydro-1H-pyrazolo[4,3-c]pyridine], for which the IC50 at TLR7 worked out at 5 nM; at TLR8, 11 nM. On the same counts, the results for `Cc1cc(N2CCc3c(c(C)nn3CC34CCC(N5C[C@H]6CC[C@@H](C5)O6)(CC3)CC4)C2)c2cnn(C)c2n1` [compound 120, (1R,5S)-3-(4-((5-(1,6-dimethyl-1H-pyrazolo[3,4-b]pyridin-4-yl)-3-methyl-4,5,6,7-tetrahydro-1H-pyrazolo[4,3-c]pyridin-1-yl)methyl)bicyclo[2.2.2]octan-1-yl)-8-oxa-3-azabicyclo[3.2.1]octane] are 4 nM and 20 nM.

Turning to `Cc1cc(N2CCc3c(c(C)nn3CC34CCC(NC(=O)CN(C)S(C)(=O)=O)(CC3)CC4)C2)c2cnn(C)c2n1` [compound 138, N-(4-((5-(1,6-dimethyl-1H-pyrazolo[3,4-b]pyridin-4-yl)-3-methyl-4,5,6,7-tetrahydro-1H-pyrazolo[4,3-c]pyridin-1-yl)methyl)bicyclo[2.2.2]octan-1-yl)-2-(N-methylmethylsulfonamido)acetamide], the IC50 at TLR7 amounted to 6 nM; on TLR8, 2790 nM.
